Measurements published in patent US11712443B2, “17α-monoesters and 17α,21-diesters of cortexolone for use in the treatment of tumors” (COSMO TECHNOLOGIES LTD., priority 2014, dated 2023).

Legend:
stimulated PBMC = assay: IC50 on stimulated PBMC (actively dividing cells); conditions: for Therapeutic Index = IC50 resting PBMC/IC50 cancer cell: PBMC Stim, healthy lymphocyte, Table IV; for Therapeutic Index = IC50 stimulated PBMC/IC50 cancer cell, AVERAGE: average across the 7 cancer cell lines, Table VII
Procedure: The IC^50 in PBMC were tested in 2 different activation status:
stimulated—actively dividing cells
IC50 of the compounds was determined on fresh cells isolated from human blood (PBMC). The compounds toxicity was determined as follow: Therapeutic Index=Safety/Potency=IC50 stimulated PBMC_/IC50 cancer cell

Caspase 3/7 = assay: Caspase activity assay in MiaPaca2 cells; type: cell-based; conditions: 8, 24, 48 hours, FIG. 11
Procedure: To better analyze the phenomenon the enzymatic activity of Caspase 8 (initiator caspase for Extrinsic Pathway) and Caspase 9 (initiator caspase for Intrinsic Pathway) and of Caspases 3 and 7 (effector caspases) were measured.
After 8, 24, & 48 hours incubation with test compounds, cells were lysed in buffer containing the caspase 3/7 or 8 or 9 substrate and a stable luciferase in proprietary buffers. The lysates were transferred to white opaque plates before measuring luminescence in a Tecan S afire instrument. Parallel plates treated identically, were used to determine viable cells. All caspase activities were corrected for the number of viable cells.

HT29 = assay: In vitro proliferation, larger cancer cell line panel; conditions: Homo sapiens, HT-29, read-out: in vitro proliferation IC50
MDA-MB-231 = assay: In vitro proliferation / cytotoxic assay on breast cancer cells (cell titer glo); type: cell-based
Procedure: (§1) For the cytotoxic assay: cells seeded in 96 well flat bottom culture plates in media containing charcoal stripped serum. After 24 hours test compounds were added to the cells. DMSO was used as the vehicle negative control and RU486 as the positive control. After 72 hours incubation cell were harvested, lysed and viability determined using the cell titer glow assay for viability.

Panc1 = assay: ATP-dependent proliferation/viability assay (Cell Titer Glo), 3 days; conditions: IC50 stimulated PBMC / IC50 Panc1; Experiment 1; 0 = higher toxicity in PBMC than in the cancer cell lines
LNCaP = assay: as above; conditions: Homo sapiens, LNCaP, 72 h, LNCaP (AR+); 10 nM DHT; 3 days; Examples 1-2 Experiment 1, sigmoidal dose response fit
Procedure: (§2) The experiment was performed to test and to define the antitumor activity in vitro of cortexolone 17α-benzoate on LNCaP (AR+) and PC3 (AR^−), representative of Prostatic cancer cell lines with Androgen Receptor (AR) positive or negative expression, respectively. The experimental method consisted of: • 1. […] After 24 hours, 10 nM DHT (dihydrotestosterone) with or without anti-androgen compounds, or DMSO vehicle (negative control) was added to the cultures. • 3.
as §2, with “define” for “define the”, “17α-valerate-21-propionate (CB-03-10)” for “17α-benzoate”, “AR” for “Androgen Receptor (AR)”

[1] = test system: MiaPaca-2 pancreatic tumor xenograft; assay: Human pancreatic tumor xenograft in nude mice, subcutaneous treatment; type: in vivo; conditions: for average tumor size increase: Cyproterone Acetate treatment groups (7.4 mg/kg and 37 mg/kg) SC daily 28 days
Procedure: The test was carried out comparing the anti-tumor activity of cortexolone 17α-benzoate at two different dosages (8.0 mg/kg, corresponding approximately at 230 μM, and 40 mg/kg, corresponding approximately at 1150 μM), versus the vehicle (i.e. 0.4% (v/v) tween 80 and 0.5% (w/v) carboxymethylcellulose in normal saline) and versus the comparator Cyproterone Acetate at two different dosages (7.4 mg/kg and 37 mg/kg).
1×10^6 MiaPaca-2 cells suspended in matrigel were subcutaneously injected into 6 week old athymic nude mice.
The treatment with the tested compounds, with the vehicle and with the comparative compound, was initiated after the tumor volume has reached 50 mm3 after transplantation. All compounds were injected 100 μL/mouse subcutaneously of low dose solution (approximately 230 μM) or 100 μL/mouse of high dose solution (approximately 1150 μM) of cortexolone 17α-benzoate, vehicle and cyproterone acetate, respectively. Compounds and controls were administered subcutaneously daily for 28 days.
Tumors were measured every 4 days with a digital caliper.
The results are plotted in FIG. 1 as average change in tumor volume relative to the start of treatment. Tumor volume was calculated according to the formula 0.5236(r1)^2(r2) where r1<r2.
The test was carried out comparing the anti-tumor activity of cortexolone 17α-valerate-21-propionate (CB-03-10) at two different dosages (approximately 8.6 mg/kg and 43 mg/kg) versus the vehicle (i.e. 0.4% (v/v) tween 80 and 0.5% (w/v) carboxymethylcellulose in normal saline) and versus the comparator Cyproterone Acetate at two different dosages (7.4 mg/kg and 37 mg/kg).
The treatment with the tested compound, with the vehicle and with the comparative compound was initiated after the tumor has reached a volume of 50 mm3 after implantation, injecting subcutaneously 100 μL/mouse of low dose solution (approximately 230 μM) or 100 μL/mouse of high dose solution (approximately 1150 μM) of cortexolone 17α-valerate-21-propionate (CB-03-10), vehicle and cyproterone acetate, respectively. Compounds and controls were administered subcutaneously daily for 28 days.
The results are plotted in FIG. 2 as average change in tumor volume relative to the start of treatment. Tumor volume was calculated according to the formula 0.5236(r1)^2(r2) where r1<r2.
CPA a well-known anti-androgen was used as control. Briefly 1×10^6 MiaPaca2 cells suspended in matrigel were subcutaneously (SC) injected into 6 week old male athymic nude mice. Tumors were measured every 4 days with a digital caliper. Tumor volume was calculated according to the formula: 0.5236(r1)2(r2) where r1<r2. Treatment with CB-03-10 and controls compounds was initiated after the tumor had reached 50 mm3. Compounds diluted in DMSO/2-hydroxypropyl b-cyclodextrin (vehicle) were injected subcutaneously (SC) daily (100 μL/mouse) at the concentration of 40 mg/Kg daily for 28 consecutive days.

[2] = test system: LNCaP prostate cancer xenograft; assay: Human prostate cancer xenograft in nude mice, oral treatment; type: in vivo
Procedure: 3×10^6 LNCaP cells suspended in matrigel were subcutaneously injected (on the right flank) into 6 week old male athymic nude mice. Tumors were measured as described above. Treatment with CB-03-10 and controls compounds was initiated after the tumor had reached 50 mm3. […] Oral dosing was daily (100 mg/Kg in 200 μL/mouse) for 28 consecutive days. Results were plotted as average change in tumor volume relative to the start of treatment.

MCF7 = assay: In vitro proliferation / cytotoxic assay on breast cancer cells (cell titer glo); conditions: MCF7 (ER+PR+GR+/-); 72 hours; Table VI prints no unit (same values in Table III in μM)
Procedure: as §1

CCCC(=O)OC1(C(=O)CO)CCC2C3CCC4=CC(=O)CC[C@]4(C)C3=CC[C@@]21C (single isomer, unassigned) [CB-03-04]
Therapeutic Index = IC50 resting PBMC/IC50 cancer cell (stimulated PBMC): 1 | Therapeutic Index = IC50 stimulated PBMC/IC50 cancer cell, AVERAGE (stimulated PBMC): 4

CCC(=O)O[C@]1(C(=O)CO)CC[C@H]2[C@@H]3CCC4=CC(=O)CC[C@]4(C)[C@H]3CC[C@@]21C [CB-03-01]
Therapeutic Index = IC50 resting PBMC/IC50 cancer cell (stimulated PBMC): 1 | Therapeutic Index = IC50 stimulated PBMC/IC50 cancer cell, AVERAGE (stimulated PBMC): 0

CCCC(=O)OCC(=O)[C@@]1(OC(=O)CCC)CCC2C3CCC4=CC(=O)CC[C@]4(C)C3CC[C@@]21C (some centres unmarked) [CB-03-03]
Therapeutic Index = IC50 resting PBMC/IC50 cancer cell (stimulated PBMC): 1 | Therapeutic Index = IC50 stimulated PBMC/IC50 cancer cell, AVERAGE (stimulated PBMC): 4

CCCCC(=O)O[C@]1(C(=O)CO)CC[C@H]2[C@@H]3CCC4=CC(=O)CC[C@]4(C)[C@H]3CC[C@@]21C [CB-03-05, cortexolone 17α-valerate]
Therapeutic Index = IC50 resting PBMC/IC50 cancer cell (stimulated PBMC): 1 | Therapeutic Index = IC50 stimulated PBMC/IC50 cancer cell, AVERAGE (stimulated PBMC): 3 | Caspase 3/7 induction / caspase activation profile (Caspase 3/7): does not show a good profile for caspase activation | IC50 (HT29): 530 µM | IC50 (MDA-MB-231; MDA-MB-231 (ER-PR-GR++), TNBC, 72 hours, Table VI prints no unit (same values in Table III in μM)): Not active | in vitro proliferation IC50 (MDA-MB-231; MDA-MB-231, Table III): not active

CC(=O)O[C@]1(C(C)=O)CC[C@H]2[C@@H]3C=C(Cl)C4=CC(=O)[C@@H]5C[C@@H]5[C@]4(C)[C@H]3CC[C@@]21C [Cyproterone Acetate, Cyproterone acetate, reference compound]
TI on Stimulated PBMC (Panc1): 1 | IC50 (LNCaP): 29 µM | Therapeutic Index = IC50 resting PBMC/IC50 cancer cell (stimulated PBMC): 1 | Therapeutic Index = IC50 stimulated PBMC/IC50 cancer cell, AVERAGE (stimulated PBMC): 1 | average tumor size increase ([1]; Example 5): 12 fold | average tumor size increase ([1]; Example 6): ≥ 12 fold | Median survival ([1]; Example 22, 40 mg/Kg SC daily 28 days, vehicle 60 days): 40 days

CNC(=O)c1ccc(N2C(=S)N(c3ccc(C#N)c(C(F)(F)F)c3)C(=O)C2(C)C)cc1F [Enzalutamide, reference compound]
prostate tumor size increase after treatment was stopped ([2]; oral 100 mg/Kg daily 28 days, after stop): 8 fold | statistical significance of tumor growth versus vehicle ([2]; oral gavage, FIG. 16): statistically significant only on days 14 and 25

Nc1ccn([C@@H]2O[C@H](CO)[C@@H](O)C2(F)F)c(=O)n1 [Gemcitabine, reference compound]
Caspase 3/7 induction / caspase activation profile (Caspase 3/7): not seen until the 48 hours mark

CC#C[C@]1(O)CC[C@H]2[C@@H]3CCC4=CC(=O)CCC4=C3[C@@H](c3ccc(N(C)C)cc3)C[C@@]21C [RU486, Mifepristone, reference compound]
IC50 (MCF7): Not active
